One block for each molecule: values may come before it. Groups on a side chain read outwards from the residue. *: point of attachment. PDPH = heterobifunctional sulfhydryl-reactive crosslinker; Dansyl = CN(C)c1cccc2c(S(=O)(=O)*)cccc12
Legend:
collagen [1] = assay: Microplate fluorescence binding of dansyl-labelled peptide or conjugate to immobilized collagen; settings: collagen vs BSA and untreated wells; 100 μM to 10 nM
Description: Binding assays were done in a 96-well high-binding plate, black with a clear bottom (Costar). Collagen was compared to untreated wells and BSA coated wells. Collagen and BSA were immobilized at 37° C. for 1 hr by incubating 90 μL/well at concentrations of 2 mg/mL in 10 mM HCl and 1×PBS, respectively. Each well was washed 3× with 1×PBS after incubating. Z-SILY was dissolved in 1×PBS at concentrations from 100 μM to 10 nM in 10-fold dilutions. Wells were incubated for 30 min at 37° C. and rinsed 3× with PBS and then filled with 90 μL of 1×PBS. Fluorescence readings were taken on an M5 Spectramax Spectrophotometer (Molecular Devices) at excitation/emission wavelengths of 335 nm/490 nm respectively.
Binding assays were done in a 96-well high binding plate, black with a clear bottom (Costar). Collagen was compared to untreated wells and BSA coated wells. Collagen and BSA were immobilized at 37° C. for 1 hr by incubating 90 μL/well at concentrations of 2 mg/mL in 10 mM HCl and 1×PBS respectively. […]
Wells were preincubated with DS at 37° C. for 30 min to eliminate nonspecific binding of DS to collagen. […] Fluorescence readings were taken on an M5 Spectramax Spectrophotometer (Molecular Devices) at excitation/emission wavelengths of 335 nm/490 nm respectively.
The fluorescence binding assays described for DS-ZSILY was performed with peptide sequence ZSYIRIADTNITGC (ZDc13).

[2] = tested on: Human aortic smooth muscle cells; assay: Collagen remodeling: hydroxyproline content in cell medium; type: cell-based; settings: cultures up to 30 days
Description: Following a method by Grassl, et al. (Grassl, et al., Journal of Biomedical Materials Research 2002, 60, (4), 607-612), which is herein incorporated in its entirety, collagen gels with or without synthetic PG mimics were formed as described in EXAMPLE 16. Human aortic smooth muscle cells (Cascade Biologics, Portland, Oreg.) were seeded within collagen gels by adding 4×10^6 cells/mL to the neutralized collagen solution prior to incubation. The cell-collagen solutions were pipetted into an 8-well Lab-Tek chamber slide and incubated in a humidified 37° C. and 5% CO2 incubator. After gelation, the cell-collagen gels will be covered with 1 mL Medium 231 as prescribed by Cascade. Every 3-4 days, the medium was removed from the samples and the hydroxyproline content measured by a standard hydroxyproline assay (Reddy, 1996).
To measure degraded collagen in the supernatant medium, the sample was lyophilized, the sample hydrolyzed in 2M NaOH at 120° C. for 20 min. After cooling, free hydroxyproline was oxidized by adding chloramine-T (Sigma) and reacting for 25 min at room temperature. Ehrlich's aldehyde reagent (Sigma) was added and allowed to react for 20 min at 65° C. and followed by reading the absorbance at 550 nm on an M-5 spectrophotometer (Molecular Devices). […] Cultures were incubated for up to 30 days and three samples of each treatment measured. […]

collagen [3] = assay: SILY binding to collagen (Biacore surface plasmon resonance)
Description: Biacore studies were performed on a Biacore 2000 using a CM-3 chip (Biacore, Inc., Piscataway, N.J.). The CM-3 chip is coated with covalently attached carboxymethylated dextran, which allows for attachment of the substrate collagen via free amine groups. Flow cells (FCs) 1 and 2 were used, with FC-1 as the reference cell and FC-2 as the collagen immobilized cell. Each FC was activated with EDC-NHS, and 1500RU of collagen was immobilized on FC-2 by flowing 1 mg/mL collagen in sodium acetate, pH 4, buffer at 5 μL/min for 10 min. Unreacted NHS-ester sites were capped with ethanolamine; the control FC-1 was activated and capped with ethanolamin.
To determine peptide binding affinity, SILY was dissolved in 1×HBS-EP buffer (Biacore) at varying concentrations from 100 uM to 1.5 μm in 2-fold dilutions. […] The first 10 injections were buffer injections, which help to prime the system, followed by randomized sample injections, run in triplicate. Analysis was performed using BIAevaluation software (Biacore).

Type I collagen gels = molecular target: T1, Type I collagen gels (Bos taurus, UniProt P02453+P02465); assay: Cryo-SEM of type I collagen gels (fibril diameter, sheet distance, fibril density); settings: for Fibril diameter: Example 29, images at 20,000×, α=0.05
T1 construct: purchased Inamed, Freemont, Calif; (Nutragen)
Description: (§1) Gels were made with Nutragen collagen (Inamed, Freemont, Calif.) at a final concentration of 4 mg/mL collagen. Nutragen stock is 6.4 mg/mL in 10 mM HCl. Gel preparation was performed on ice, and fresh samples were made before each test. The collagen solution was adjusted to physiologic pH and salt concentration, by adding appropriate volumes of 10×PBS (phosphate buffered saline), 1×PBS, and 1M NaOH. For most experiments, samples of DS, decorin, DS-SILY, or DS-SYIR were added at a 10:1 collagen:sample molar ratio by a final 1×PBS addition (equal volumes across treatments) in which the test samples were dissolved at appropriate concentrations. In this way, samples are constantly kept at pH 7.4 and physiologic salt concentration. Collagen-alone samples received a 1×PBS addition with no sample dissolved. Fibrillogenesis will be induced by incubating neutralized collagen solutions at 37° C. overnight in a humidified chamber to avoid dehydration. Gel solutions with collagen:sample molar ratios of other than 10:1 were prepared similarly.
Gels for cryo-SEM were formed, as in EXAMPLE 16, directly on the SEM stage and incubated at 37° C. overnight. The stages were then secured in a cryo-holder and plunged into liquid nitrogen slush. Samples were then transferred to a Gatan Alto 2500 pre-chamber cooled to −170° C. under vacuum. A free-break surface was created with a cooled scalpel, and each sample evaporated under sublimation conditions for 20 min. The sample was coated by platinum sputter coating for 120 s. […] Fibril diameter was calculated using ImageJ software (NIH) measuring individual fibrils by hand (drawing a line across fibrils and measuring its length after properly setting the scale). There were 3 observers, 3 separate images per treatment, 10 fibrils recorded per image giving a total of 90 measurements per treatment. Sheet distance was calculated using ImageJ, again measuring by hand. […]
Using a modification of EXAMPLE 21 fibril diameters were measured by cryo-SEM. Fibril diameters from cryo-SEM images taken at 20,000× were measured using ImageJ software (NIH). At least 45 fibrils were measured for each treatment. […]
Collagen gels were formed in the presence of each additive at a 10:1 molar ratio, as described in EXAMPLE 16, directly on the SEM stage, processed, and imaged as described. Images at 10,000× were analyzed for fibril density calculations. Images were converted to 8-bit black and white, and threshold values for each image were determined using ImageJ software (NIH). […] The ratio of white to black area was calculated using MatLab software. All measurements were taken in triplicate and thresholds were determined by an observer blinded to the treatment.

collagen [4] = molecular target: T2, collagen (Bos taurus, UniProt P02453+P02465); assay: Collagen fibrillogenesis by turbidity (absorbance at 313 nm); type: biochemical; settings: 1:1 collagen:additive molar ratio
T2 construct: purchased Inamed, Freemont, Calif; (Nutragen)
Description: as §1
Collagen fibrillogenesis was monitored by measuring turbidity related absorbance at 313 nm providing information on rate of fibrillogenesis and fibril diameter. […] A SpectraMax M5 at 37° C. was used to measure absorbance at 313 nm at 30 s intervals for 6 hours. […]

[5] = tested on: Human coronary artery smooth muscle cells (HCA SMC); assay: Gel compaction by cells seeded in collagen gels; type: cell-based
Description: Human coronary artery smooth muscle cells (HCA SMC) (Cascade Biologics) were cultured in growth medium (Medium 231 supplemented with smooth muscle growth factor). Cells from passage 3 were used for all experiments. Differentiation medium (Medium 231 supplemented with 1% FBS and 1× pen/strep) was used for all experiments unless otherwise noted.
Collagen gels were prepared with each additive as described with the exception that the 1×PBS example addition was omitted to accommodate the addition of cells in media. After incubating on ice for 30 min, HCA SMCs in differentiation medium were added to the gel solutions to a final concentration of 1×10^6 cells/mL. Gels were formed in quadruplicate in 48-well non-tissue culture treated plates (Costar) for 6 hrs before adding 500 μL/well differentiation medium. Gels were freed from the well edges after 24 hrs. Medium was changed every 2-3 days and images for compaction were taken at the same time points using a Gel Doc System (Bio-Rad). The cross-sectional area of circular gels correlating to degree of compaction was determined using ImageJ software (NIH). Gels containing no cells were used as a negative control and cells in collagen gels absent additive were used as a positive control. By day 10 all gels had compacted to approximately 10% of the original gel area, and differences between additives were small.

T1 sequence (P02453 162-1217 limits assumed): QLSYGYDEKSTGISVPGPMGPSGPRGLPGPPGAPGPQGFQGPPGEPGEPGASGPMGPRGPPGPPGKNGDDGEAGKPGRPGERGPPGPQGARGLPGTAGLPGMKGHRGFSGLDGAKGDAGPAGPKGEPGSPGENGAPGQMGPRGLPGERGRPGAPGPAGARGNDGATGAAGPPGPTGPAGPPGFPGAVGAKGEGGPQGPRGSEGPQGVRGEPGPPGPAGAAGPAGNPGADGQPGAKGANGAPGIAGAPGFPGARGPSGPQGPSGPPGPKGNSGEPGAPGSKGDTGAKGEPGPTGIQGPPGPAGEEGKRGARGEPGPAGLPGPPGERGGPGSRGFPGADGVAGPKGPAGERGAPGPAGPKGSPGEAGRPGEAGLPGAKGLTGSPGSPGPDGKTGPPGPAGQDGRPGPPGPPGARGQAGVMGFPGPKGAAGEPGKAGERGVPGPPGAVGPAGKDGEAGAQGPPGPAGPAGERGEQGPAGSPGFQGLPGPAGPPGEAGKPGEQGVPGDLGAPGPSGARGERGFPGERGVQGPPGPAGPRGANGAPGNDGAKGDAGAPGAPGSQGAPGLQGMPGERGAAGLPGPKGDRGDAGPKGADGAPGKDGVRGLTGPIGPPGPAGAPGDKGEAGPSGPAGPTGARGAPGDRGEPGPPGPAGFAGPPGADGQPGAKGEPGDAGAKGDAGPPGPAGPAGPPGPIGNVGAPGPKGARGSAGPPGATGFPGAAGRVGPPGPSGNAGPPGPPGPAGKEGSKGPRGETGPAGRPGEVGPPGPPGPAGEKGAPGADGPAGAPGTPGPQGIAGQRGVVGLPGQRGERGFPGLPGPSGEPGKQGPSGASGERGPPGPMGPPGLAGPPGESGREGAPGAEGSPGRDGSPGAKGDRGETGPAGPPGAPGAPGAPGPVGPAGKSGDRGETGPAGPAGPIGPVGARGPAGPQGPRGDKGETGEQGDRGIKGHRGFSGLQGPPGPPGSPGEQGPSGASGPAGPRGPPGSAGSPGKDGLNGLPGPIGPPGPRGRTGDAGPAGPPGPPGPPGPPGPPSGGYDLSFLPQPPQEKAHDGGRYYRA
T1 sequence (P02465 80-1117 limits assumed): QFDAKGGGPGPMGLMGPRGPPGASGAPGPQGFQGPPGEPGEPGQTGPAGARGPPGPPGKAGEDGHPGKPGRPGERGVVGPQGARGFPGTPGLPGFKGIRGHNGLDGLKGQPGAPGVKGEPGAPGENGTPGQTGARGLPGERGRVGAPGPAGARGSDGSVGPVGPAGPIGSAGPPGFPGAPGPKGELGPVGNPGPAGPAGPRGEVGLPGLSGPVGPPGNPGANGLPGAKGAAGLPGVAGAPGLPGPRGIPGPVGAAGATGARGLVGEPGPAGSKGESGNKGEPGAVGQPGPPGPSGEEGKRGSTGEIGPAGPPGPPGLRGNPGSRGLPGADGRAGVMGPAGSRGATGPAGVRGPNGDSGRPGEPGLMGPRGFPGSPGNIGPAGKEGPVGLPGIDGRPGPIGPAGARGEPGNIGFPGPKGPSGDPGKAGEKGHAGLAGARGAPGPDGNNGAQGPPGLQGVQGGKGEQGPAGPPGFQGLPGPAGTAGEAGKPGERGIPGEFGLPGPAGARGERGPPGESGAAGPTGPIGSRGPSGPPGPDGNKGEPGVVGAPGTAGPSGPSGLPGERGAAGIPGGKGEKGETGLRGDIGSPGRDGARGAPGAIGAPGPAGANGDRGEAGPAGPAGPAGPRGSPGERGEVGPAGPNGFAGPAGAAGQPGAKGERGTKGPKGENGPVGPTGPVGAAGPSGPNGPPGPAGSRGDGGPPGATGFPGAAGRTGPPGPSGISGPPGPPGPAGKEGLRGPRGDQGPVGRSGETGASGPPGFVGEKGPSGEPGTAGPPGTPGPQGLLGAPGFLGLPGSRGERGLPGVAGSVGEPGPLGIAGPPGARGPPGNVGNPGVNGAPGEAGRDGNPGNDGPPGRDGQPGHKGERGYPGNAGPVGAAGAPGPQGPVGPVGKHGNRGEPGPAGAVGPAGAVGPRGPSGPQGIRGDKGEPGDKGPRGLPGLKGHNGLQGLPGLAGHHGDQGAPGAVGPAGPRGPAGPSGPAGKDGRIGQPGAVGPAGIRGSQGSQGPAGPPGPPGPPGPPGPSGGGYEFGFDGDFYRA
T2 sequence (P02453 162-1217 limits assumed): as the sequence (P02453 162-1217 limits assumed) above
T2 sequence (P02465 80-1117 limits assumed): as the sequence (P02465 80-1117 limits assumed) above

Molecule: DS-Z-SILY: dermatan sulfate conjugated to dansyl-modified peptide Z-SILY (Dansyl-GRRANAALKAGELYKSILYGC([PDPH-oxidized dermatan sulfate])-NH2)
- Specific binding to collagen-treated wells (collagen [1]): binds specifically to the collagen-treated wells over BSA and untreated wells

Molecule: DS-ZDc13: dermatan sulfate conjugate of ZSYIRIADTNITGC (ZDc13)
- Specific binding to collagen-treated wells (collagen [1]): binds specifically to the collagen surface in a dose-dependent manner

- Reversibility of binding to collagen (collagen [3]; association/disassociation curves, FIG. 3): binds reversibly with collagen
- Kd (collagen [3]; calculated from the on-off binding kinetics, collagen immobilized on CM-3 chip): 1200 nM
- Fibril density (ratio of fibril containing area to void space) (Type I collagen gels; 10:1 collagen:additive, images at 10,000×): significantly greater fibril density
- Fibril diameter (Type I collagen gels): decrease in fibril diameter
Molecule: RRANAALKAGELYKSILYGC
- Collagen degradation by hydroxyproline content in cell medium [2]: greater collagen degradation compared to collagen alone

- Fibril diameter (Type I collagen gels): does not affect fibril diameter
Molecule: SYIRIADTNITGC [Dc13, Dc13 peptide]
- Effect on fibrillogenesis (collagen [4]): little effect on fibrillogenesis compared to collagen alone
- Collagen degradation by hydroxyproline content in cell medium [2]: greater collagen degradation compared to collagen alone

B1: Decorin: proteoglycan known to influence collagen fibrillogenesis (protein, UniProt P07585 31-359, looked up)
Decorin: DEASGIGPEVPDDRDFEPSLGPVCPFRCQCHLRVVQCSDLGLDKVPKDLPPDTTLLDLQNNKITEIKDGDFKNLKNLHALILVNNKISKVSPGAFTPLVKLERLYLSKNQLKELPEKMPKTLQELRAHENEITKVRKVTFNGLNQMIVIELGTNPLKSSGIENGAFQGMKKLSYIRIADTNITSIPQGLPPSLTELHLDGNKISRVDAASLKGLNNLAKLGLSFNSISAVDNGSLANTPHLRELHLDNNKLTRVPGGLAEHKYIQVVYLHNNNISVVGSSDFCPPGHNTKKASYSGVSLFSNPVQYWEIQPSTFRCVYVRSAIQLGNYK
- Gel compaction, statistical significance ([5]; Day 7): significant against all samples
- Gel compaction, statistical significance ([5]; Days 3 and 5): significant relative to collagen and DS
- Fibril diameter (Type I collagen gels): significantly decrease fibril diameter over collagen or collagen+dermatan sulfate
